The values below come from patent US9732075B2, “Benzimidazole-proline derivatives” (IDORSIA PHARMACEUTICALS LTD, priority 2012, dated 2017).

Experiment [1] deals with human orexin-1 receptor (Homo sapiens (Human), UniProt O43613). As to the kind of experiment: In vitro assay: intracellular calcium measurements (FLIPR), antagonistic activity. The following applies: CHO cells expressing human orexin-1 receptor, orexin-A agonist, geometric mean, read-out: IC50 Ox1. It counts as cell-based. The procedure, abridged:
(§1)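 Dye-loaded CHO cells expressing either human orexin receptor are exposed to test antagonist for 120 min, then stimulated with orexin-A at 3 nM.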
(Calcium assays in cells follow changes in intracellular calcium, usually with a dye or a luminescent sensor.)

Experiment [2] concerns the target human orexin-2 receptor (Homo sapiens (Human), UniProt O43614). The experiment is described as above. The class given is cell-based. The following applies: CHO cells expressing human orexin-2 receptor, orexin-A agonist, geometric mean, read-out: IC50 Ox2. The procedure, abridged: as §1

Broadly, the IC50 is the concentration at which inhibition is half-maximal.

Chain of human orexin-2 receptor (O43614 whole entry): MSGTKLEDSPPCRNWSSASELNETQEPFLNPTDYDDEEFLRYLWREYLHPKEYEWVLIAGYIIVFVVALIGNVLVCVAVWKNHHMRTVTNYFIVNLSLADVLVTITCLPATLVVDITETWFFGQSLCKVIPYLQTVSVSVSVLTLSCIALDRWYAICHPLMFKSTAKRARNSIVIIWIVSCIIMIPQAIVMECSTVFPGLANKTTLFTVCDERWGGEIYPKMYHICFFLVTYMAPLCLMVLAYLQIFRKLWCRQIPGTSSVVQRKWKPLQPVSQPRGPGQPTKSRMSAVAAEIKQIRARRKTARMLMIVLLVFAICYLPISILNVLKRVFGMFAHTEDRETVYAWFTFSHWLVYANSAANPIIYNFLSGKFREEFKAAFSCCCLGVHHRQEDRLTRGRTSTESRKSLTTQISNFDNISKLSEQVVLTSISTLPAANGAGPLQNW
Chain of human orexin-1 receptor (O43613 whole entry): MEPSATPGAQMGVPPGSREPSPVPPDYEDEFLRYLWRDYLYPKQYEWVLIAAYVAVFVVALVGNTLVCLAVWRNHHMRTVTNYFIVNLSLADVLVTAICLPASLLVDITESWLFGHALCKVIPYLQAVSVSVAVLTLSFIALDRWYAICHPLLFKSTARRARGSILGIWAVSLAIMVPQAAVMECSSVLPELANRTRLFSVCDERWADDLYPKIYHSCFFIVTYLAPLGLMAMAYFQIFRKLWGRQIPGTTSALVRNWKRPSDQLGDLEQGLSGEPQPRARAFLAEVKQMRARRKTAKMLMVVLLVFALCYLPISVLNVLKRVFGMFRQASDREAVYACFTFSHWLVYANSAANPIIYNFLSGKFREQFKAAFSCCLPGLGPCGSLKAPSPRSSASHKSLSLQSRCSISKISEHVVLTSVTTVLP

As for `COCCn1c([C@]2(C)CCCN2C(=O)c2cc(C)ccc2-c2cccc(C)c2)nc2cc(C)c(C)cc21` [Ex. 7.29], the values for the IC50 in experiment [1] and in experiment [2] were 23 nM and 70 nM, respectively.
Taken in the same sequence, the figures for `Cc1ccc(-c2cccc(F)c2)c(C(=O)N2CCC[C@@]2(C)c2nc3cc(C)c(C)cc3n2C)c1` [Ex. 7.30] were 9 nM and 12 nM.
For the compound `CCn1c([C@]2(C)CCCN2C(=O)c2cc(C)ccc2-c2cccc(F)c2)nc2cc(C)c(C)cc21` [Ex. 7.31], the IC50 was 8 nM in experiment [1] and 19 nM in experiment [2].
Regarding `Cc1ccc(-n2nccn2)c(C(=O)N2CCC[C@@]2(C)c2nc3cc(F)c(Br)cc3n2C)c1` [Ex. 7.32], the values for the IC50 in experiment [1] and in experiment [2] were 7 nM and 124 nM, respectively.
Taken in the same sequence, the figures for `Cc1nc(C(=O)N2CCC[C@@]2(C)c2nc3c(C)c(Cl)ccc3n2C)c(-c2cccc(Cl)c2)s1` [Ex. 7.33] were 1 nM and 3 nM.
Taken in the same sequence, the figures for `Cc1ccc(-c2cccc(F)c2)c(C(=O)N2CCC[C@@]2(C)c2nc3cc(C)c(C)cc3n2CC2CC2)c1` [Ex. 7.34] were 16 nM and 84 nM.
Take `Cc1ccc(-c2cccc(F)c2)c(C(=O)N2CCC[C@@]2(C)c2nc3cc(C)c(C)cc3n2CCF)c1` [Ex. 7.35]: the IC50 in experiment [1] was 6 nM; in experiment [2], 20 nM.
For the compound `COCCn1c([C@]2(C)CCCN2C(=O)c2cc(C)ccc2-c2cccc(F)c2)nc2cc(C)c(C)cc21` [Ex. 7.36], the IC50 in experiment [1] is 16 nM; in experiment [2], 115 nM.
Consider `Cc1ccc(-c2ccc(C)cc2C(=O)N2CCC[C@@]2(C)c2nc3cc(C)c(C)cc3n2C)cc1` [Ex. 7.37], for which the IC50 in experiment [1] was found to be 11 nM; in experiment [2], 20 nM.
For `CCn1c([C@]2(C)CCCN2C(=O)c2cc(C)ccc2-c2ccc(C)cc2)nc2cc(C)c(C)cc21` [Ex. 7.38], the IC50 in experiment [1] turned out to be 8 nM; in experiment [2], 30 nM.
In the case of `Cc1ccc(-c2ccc(C)cc2C(=O)N2CCC[C@@]2(C)c2nc3cc(C)c(C)cc3n2CC2CC2)cc1` [Ex. 7.39], the results for the IC50 in experiment [1] and in experiment [2] were 43 nM and 61 nM, respectively.
Regarding `Cc1ccc(-c2ccc(C)cc2C(=O)N2CCC[C@@]2(C)c2nc3cc(C)c(C)cc3n2CCF)cc1` [Ex. 7.40], the IC50 in experiment [1] was 23 nM; in experiment [2] it was 39 nM.
Turning to `COCCn1c([C@]2(C)CCCN2C(=O)c2cc(C)ccc2-c2ccc(C)cc2)nc2cc(C)c(C)cc21` [Ex. 7.41], the IC50 turned out to be 44 nM in experiment [1] and 106 nM in experiment [2].
Take `COc1cccc(-c2ccc(C)cc2C(=O)N2CCC[C@@]2(C)c2nc3cc(C)c(C)cc3n2C)c1` [Ex. 7.42]: the figures for the IC50 in experiment [1] and in experiment [2] were 38 nM and 28 nM, respectively.
In the case of `Cc1ccc(-c2ccccc2F)c(C(=O)N2CCC[C@@]2(C)c2nc3cc(C)c(C)cc3n2C)c1` [Ex. 7.43], the IC50 in experiment [1] is 24 nM; in experiment [2], 42 nM.
Taken in the same sequence, the figures for `CCn1c([C@]2(C)CCCN2C(=O)c2cc(C)ccc2-c2cccc(OC)c2)nc2cc(C)c(C)cc21` [Ex. 7.44] were 21 nM and 35 nM.
The matching figures for `CCn1c([C@]2(C)CCCN2C(=O)c2cc(C)ccc2-c2ccccc2F)nc2cc(C)c(C)cc21` [Ex. 7.45]: 31 nM and 60 nM.
Taken in the same sequence, the figures for `COCCn1c([C@]2(C)CCCN2C(=O)c2cc(C)ccc2-n2nccn2)nc2cc(OC)c(OC)cc21` [Ex. 7.46] were 78 nM and 77 nM.
`COc1cc2nc([C@]3(C)CCCN3C(=O)c3cc(C)ccc3-n3nccn3)n(CC3CC3)c2cc1OC` [Ex. 7.47]: the figures for the IC50 in experiment [1] and in experiment [2] were 39 nM and 60 nM, respectively.
Taken in the same sequence, the figures for `COc1cc2nc([C@]3(C)CCCN3C(=O)c3cc(C)ccc3-n3nccn3)n(CCF)c2cc1OC` [Ex. 7.48] were 33 nM and 40 nM.
For the compound `COc1cccc(-c2ccc(C)cc2C(=O)N2CCC[C@@]2(C)c2nc3cc(C)c(C)cc3n2CC2CC2)c1` [Ex. 7.49], the IC50 was 96 nM in experiment [1] and 173 nM in experiment [2].
Taken in the same sequence, the figures for `Cc1ccc(-c2ccccc2F)c(C(=O)N2CCC[C@@]2(C)c2nc3cc(C)c(C)cc3n2CC2CC2)c1` [Ex. 7.50] were 66 nM and 171 nM.
The matching figures for `COc1cccc(-c2ccc(C)cc2C(=O)N2CCC[C@@]2(C)c2nc3cc(C)c(C)cc3n2CCF)c1` [Ex. 7.51]: 19 nM and 27 nM.
Taken in the same sequence, the figures for `Cc1ccc(-c2ccccc2F)c(C(=O)N2CCC[C@@]2(C)c2nc3cc(C)c(C)cc3n2CCF)c1` [Ex. 7.52] were 27 nM and 60 nM.
Consider `COCCn1c([C@]2(C)CCCN2C(=O)c2cc(C)ccc2-c2cccc(OC)c2)nc2cc(C)c(C)cc21` [Ex. 7.53], for which the IC50 was 46 nM in experiment [1] and 190 nM in experiment [2].
Consider `COCCn1c([C@]2(C)CCCN2C(=O)c2cc(C)ccc2-c2ccccc2F)nc2cc(C)c(C)cc21` [Ex. 7.54], for which the IC50 in experiment [1] is 87 nM; in experiment [2], 270 nM.
Taken in the same sequence, the figures for `Cc1ccc(-n2nccn2)c(C(=O)N2C[C@@H](F)C[C@H]2c2nc3ccc(Cl)c(C)c3[nH]2)c1` [Example 2.1, ((2S,4S)-2-(6-chloro-7-methyl-1H-benzo[d]imidazol-2-yl)-4-fluoropyrrolidin-1-yl)(5-methyl-2-(2H-1,2,3-triazol-2-yl)phenyl)methanone] were 56 nM and 53 nM.
Regarding `CO[C@H]1C[C@@H](c2nc3ccc(Cl)c(C)c3[nH]2)N(C(=O)c2cc(C)ccc2-n2nccn2)C1` [Example 3.1, ((2S,4S)-2-(6-chloro-7-methyl-1H-benzo[d]imidazol-2-yl)-4-methoxypyrrolidin-1-yl)(5-methyl-2-(2H-1,2,3-triazol-2-yl)phenyl)methanone], the IC50 in experiment [1] amounted to 102 nM; in experiment [2], 69 nM.
The matching figures for `Cc1ccc(-n2nccn2)c(C(=O)N2CC[C@H](C)[C@H]2c2nc3cccc(C)c3[nH]2)c1` [Example 4.1, (5-methyl-2-(2H-1,2,3-triazol-2-yl)phenyl)((2S,3S)-3-methyl-2-(7-methyl-1H-benzo[d]imidazol-2-yl)pyrrolidin-1-yl)methanone]: 29 nM and 778 nM.
Consider `Cc1nc(C(=O)N2CCC[C@@]2(C)c2nc3cccc(C)c3[nH]2)c(-c2ccccc2)s1` [Example 5.1, (S)-(2-methyl-2-(7-methyl-1H-benzo[d]imidazol-2-yl)pyrrolidin-1-yl)(2-methyl-5-phenylthiazol-4-yl)methanone], for which the results for the IC50 in experiment [1] and in experiment [2] were 26 nM and 13 nM, respectively.
The matching figures for `C=C1C[C@@H](c2nc3ccc(OC)cc3[nH]2)N(C(=O)c2nc(C)sc2-c2ccc(F)cc2)C1` [Example 6.1, (S)-(5-(4-fluorophenyl)-2-methylthiazol-4-yl)(2-(6-methoxy-1H-benzo[d]imidazol-2-yl)-4-methylenepyrrolidin-1-yl)methanone]: 367 nM and 33 nM.
As for `Cc1ccc(-n2nccn2)c(C(=O)N2CCC[C@@]2(C)c2nc3cc(Br)cc(C)c3n2C)c1` [Example 7.4, (S)-(2-(5-bromo-1,7-dimethyl-1H-benzo[d]imidazol-2-yl)-2-methylpyrrolidin-1-yl)(5-methyl-2-(2H-1,2,3-triazol-2-yl)phenyl)methanone], the IC50 in experiment [1] stood at 7 nM; in experiment [2], 6 nM.
